How the values were obtained:
[1] = test system: DNA repair genes in patient LICs (CD34+ CD38−); test: LC-RNA-seq of primary patient LICs; assay type: cell-based, human
Protocol: FIG. 5A-5E show representative data that AR-42 and KPT-9274 synergistically alter DNA repair gene sets of LIC transcriptomes. […] Briefly, primary cells from 5 patients were treated with drug combination or vehicle for 12 hours before LICs (CD34^+ CD38^−) were sorted for LC-RNA-seq. […] Cutoff Log 2FC=1.5; p-value<10e^−2. […] The hierarchical clustering of genes and samples was performed using Euclidean distance matrix and Ward's clustering method.
Limiting cell-RNA-seq (LC-RNA-seq) for primary patient LICs. LC-RNA-seq was performed as previously described to determine transcriptome profiles and differentially expressed genes (DEGs) of patient LICs treated with various inhibitors (21). Briefly, patient cells were cultured in the presence of cytokines and treated with vehicle, single agents or drug combination. 300 viable LICs from treated patient samples were sorted directly into SMART-seq lysis buffer with FACSAria Fusion (BD) based on putative stem cell markers CD34^+ CD38^− (22). […] The Clontech SMARTer v4 kit (Takara Bio USA, Inc., Mountain View, CA) was used for preamplifying samples prior to library construction with the Nextera XT DNA Library Prep Kit (Illumina, Inc., San Diego, CA). Samples were sequenced to a depth of 15-20 million 2×150 bp clusters with the Illumina HiSeq 4000 platform. After quality control with CLEAR selection process and size-normalization, DEGs were called with DESeqs with (FDR) adjusted p-value <0.05. Principle component analysis (PCA) plots were created from count tables which were normalized by size and transformed. For pathway analysis, the list of DEGs, containing gene IDs and corresponding expression values, was uploaded into the IPA software (Qiagen) (Ingenuity Pathway Analysis, RRID:SCR_008653). […]
The synthetic lethality of AR-42 and KPT-9274 is conferred by simultaneous suppression of HR and NHEJ pathways in leukemia initiating cells (LICs). […] Treated LICs were analyzed for transcriptional differences and DNA repair mechanisms were highlighted.

[2] = test system: HR activity in EJDR-reporter-stable U2OS cells; test: EJDR reporter assay, HR-GFP; assay type: cell-based; conditions: ISceI-induced
Protocol: EJDR reporter assay. The EJDR assay was described previously (20). EJDR reporter cells were plated at 5×10^5 cells per well in 10% FBS and RPM11640. After drug treatments, cells were grown in 10% Tet-free FBS (100-800; Gemini) and RPM11640. Incorporated I-Sce1 was induced with Shield1 (632189; Clontech) and triamcinolone (TA) (T6510; Sigma Aldrich) ligands for 24 hours. NHEJ and HR repair activities were assessed 48 hours post induction by quantification of DsRed- and GFP-positive cells on Cytomics FC 500 Flow Cytometer (Beckman Coulter, Brea, CA).
It was unclear whether the potent ability of HDAC inhibitor to induce apoptosis of AML cells in combination with NAMPT inhibition was due to the loss of HR or NHEJ activity alone or both together. Accordingly, HR and NHEJ activities in AML cells exposed to these treatments were examined using the EJDR reporter system (FIG. 6B). EJDR-reporter-stable U2OS cells were treated with vehicle, single agents, or drug combination before being incubated with ligands, TA and Shield 1. […] The expression of D-NHEJ pathway factors, Ku70 and DNA-PKcs, and ATM pathway mediators, CHEK1 and CHEK2, were abolished by AR-42 and KPT-9274 co-treatment. […] Therefore, suppression of HDAC8 can attenuate HR and D-NHEJ gene expressions, resulting in NAMPT inhibitor sensitivity.

leukemia stem cells = conditions: caspase-dependent apoptosis, Ref. 28; cited from earlier work
[3] = Phase I trial; cited from earlier work

Row | Compound | mRNA levels of HR genes (NBN, RBBP8, RAD51, BRCA1), D-NHEJ genes (XRCC4, XRCC5) and ATM pathway genes (CHEK1, CHEK2) ([1]; AR-42 alone or in combination with KPT-9274, 12 hours) | HR activity (HR-GFP reporter) [2] | death of leukemia stem cells (leukemia stem cells) | BRCA1 and XRCC4 expression ([1]; KPT-9274 alone, in some patients) | yields of D-NHEJ transcripts (XRCC6, PRKDC) and B-NHEJ gene PARP1 ([1]; in all patients) | drug-related adverse events [3] | tolerability vs 1st generation NAMPTi [3]
1 | CC(C)[C@H](C(=O)Nc1ccc(C(=O)NO)cc1)c1ccccc1 [AR-42, (S)—N-Hydroxy-4-(3-methyl-2-phenylbutanamido)benzamide] | downregulated | nearly completely abolished | induce death of leukemia stem cells |  |  |  | 
2 | Nc1ccc(/C=C/C(=O)NCc2cc3cc(-c4ccc(C(=O)N5CCC(F)(F)CC5)cc4)cc(-c4ccc(F)cc4)c3o2)cn1 [KPT-9274, (E)-3-(6-aminopyridin-3-yl)-N-[[5-[4-(4,4-difluoropiperidine-1-carbonyl)phenyl]-7-(4-fluorophenyl)-1-benzofuran-2-yl]methyl]prop-2-enamide] |  | did not impact HR activity |  | upregulated | decreased | anemia and fatigue | better tolerated
